Reference: ChEMBL document CHEMBL3822435, “Synthesis, antiproliferative and pro-apoptotic activity of 2-phenylindoles” (Bioorg Med Chem, 2016)
The source made the active and inactive calls. No cut-off for these calls is given here.

Experiments:
MCF7 [1] = assay: Induction of apoptosis in human MCF7 cells assessed as apoptotic cells at 10 uM measured after 72 hrs by propidium iodide staining-based flow cytometric analysis (reference value: 5.5 +/- 1.3%); assay type: functional
MCF7 [2] = assay: Induction of apoptosis in human MCF7 cells assessed as accumulation at G2/M-phase at 10 uM measured after 72 hrs by propidium iodide staining-based flow cytometric analysis; assay type: functional, cell-based
PBMC [3] = assay: Induction of apoptosis in human PBMCs assessed as apoptotic cells at 10 uM measured after 72 hrs by propidium iodide staining-based flow cytometric analysis (reference value: 1.5 +/- 0.6%); assay type: cell-based
PBMC [4] = assay: Induction of apoptosis in human PBMCs assessed as accumulation at G2/M-phase at 10 uM measured after 72 hrs by propidium iodide staining-based flow cytometric analysis; assay type: cell-based
Estrogen receptor = biological target: T1, Estrogen receptor (Homo sapiens, UniProt P03372)
T1 sequence (P03372 whole entry): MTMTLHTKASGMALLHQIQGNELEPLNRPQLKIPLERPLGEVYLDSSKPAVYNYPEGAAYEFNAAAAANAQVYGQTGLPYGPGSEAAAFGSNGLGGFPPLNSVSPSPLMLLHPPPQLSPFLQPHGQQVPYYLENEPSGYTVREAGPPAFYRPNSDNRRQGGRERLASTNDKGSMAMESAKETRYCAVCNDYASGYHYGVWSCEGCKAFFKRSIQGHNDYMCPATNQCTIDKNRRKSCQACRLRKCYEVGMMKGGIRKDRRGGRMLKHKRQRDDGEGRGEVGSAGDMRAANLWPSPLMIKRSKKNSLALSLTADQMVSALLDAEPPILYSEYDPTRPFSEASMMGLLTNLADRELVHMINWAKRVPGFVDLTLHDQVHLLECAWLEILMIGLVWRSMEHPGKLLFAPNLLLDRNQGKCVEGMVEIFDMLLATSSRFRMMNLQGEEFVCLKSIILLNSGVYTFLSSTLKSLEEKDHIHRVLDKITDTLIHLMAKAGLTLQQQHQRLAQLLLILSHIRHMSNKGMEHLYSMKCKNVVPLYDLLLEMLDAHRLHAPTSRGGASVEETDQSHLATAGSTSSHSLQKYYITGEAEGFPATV
Description: Inhibition of ER-alpha (unknown origin) by Lanthascreen-FRET assay

Estrogen receptor beta = Estrogen receptor beta (Homo sapiens, UniProt Q92731)
Description: Inhibition of ER-beta (unknown origin) by Lanthascreen-FRET assay

MCF7 [5] = assay: cells; details: Homo sapiens, MCF7, 72 h
Description: Antiproliferative activity against ER-positive human MCF7 cells assessed as reduction in cell viability measured after 72 hrs by AlamarBlue assay

Sequence of Estrogen receptor beta (Q92731 whole entry): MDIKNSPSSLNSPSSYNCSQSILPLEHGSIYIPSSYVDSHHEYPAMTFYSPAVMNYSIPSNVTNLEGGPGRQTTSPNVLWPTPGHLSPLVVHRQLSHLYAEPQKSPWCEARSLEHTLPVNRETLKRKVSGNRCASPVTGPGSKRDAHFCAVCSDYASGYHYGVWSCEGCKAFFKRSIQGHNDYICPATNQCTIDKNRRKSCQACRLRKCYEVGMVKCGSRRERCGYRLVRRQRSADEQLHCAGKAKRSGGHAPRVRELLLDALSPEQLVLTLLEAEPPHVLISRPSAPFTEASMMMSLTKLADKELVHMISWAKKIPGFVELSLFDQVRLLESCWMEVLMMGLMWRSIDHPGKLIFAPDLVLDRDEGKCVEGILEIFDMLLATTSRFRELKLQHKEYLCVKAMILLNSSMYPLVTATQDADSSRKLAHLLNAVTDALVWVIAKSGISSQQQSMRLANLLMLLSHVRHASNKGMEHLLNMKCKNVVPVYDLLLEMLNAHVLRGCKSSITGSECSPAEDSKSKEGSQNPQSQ

Row | Structure (SMILES) | IC50 (MCF7 [5]) [µM] | other results
1 | CNCCCCCCCCCCCCn1c(-c2ccc(O)cc2)c(C)c2cc(O)ccc21 | 33 | Activity (MCF7 [1]): 7.5%; Activity (MCF7 [2]): inactive; Activity (PBMC [3]): Non-toxic; Activity (PBMC [4]): Non-toxic; IC50 (Estrogen receptor): 0.38 µM; IC50 (Estrogen receptor beta): 1.66 µM
2 | COc1ccc(/C=C(/C(=O)N(C)CCCCn2c(-c3ccc(O)cc3)c(C)c3cc(O)ccc32)c2cc(OC)c(OC)c(OC)c2)cc1O | 1.99 | 
3 | Cc1c(-c2ccc(O)cc2)n(CCCCCn2c(-c3ccc(O)cc3)c(C)c3cc(O)ccc32)c2ccc(O)cc12 | 4.16 | 
4 | Cc1c(-c2ccc(O)cc2)n(CCCCCCCCCCCCn2c(-c3ccc(O)cc3)c(C)c3cc(O)ccc32)c2ccc(O)cc12 | 5.24 | 
5 | COc1ccc(/C=C(/C(=O)N(C)CCCCCCCCCCCCn2c(-c3ccc(O)cc3)c(C)c3cc(O)ccc32)c2cc(OC)c(OC)c(OC)c2)cc1O | 1.86 | Activity (MCF7 [1]): 42.1%; Activity (MCF7 [2]): inactive; Activity (PBMC [3]): Non-toxic; Activity (PBMC [4]): Non-toxic; IC50 (Estrogen receptor): 0.574 µM; IC50 (Estrogen receptor beta): 0.155 µM
6 | Cc1c(-c2ccc(O)cc2)n(CCCCCCCCn2c(-c3ccc(O)cc3)c(C)c3cc(O)ccc32)c2ccc(O)cc12 | 6.6 | 
7 | CNCCCCn1c(-c2ccc(O)cc2)c(C)c2cc(O)ccc21 | 40.7 | 
8 | COc1cc(Cn2c(-c3ccc(O)cc3)c(C)c3cc(O)ccc32)cc(OC)c1OC | 332 | 
9 | Cc1c(-c2ccc(O)cc2)n(CCCCCCn2c(-c3ccc(O)cc3)c(C)c3cc(O)ccc32)c2ccc(O)cc12 | 8.16 | 
10 | CNCCCCCCCCn1c(-c2ccc(O)cc2)c(C)c2cc(O)ccc21 | 38.9 | 
11 | CNCCCCCCn1c(-c2ccc(O)cc2)c(C)c2cc(O)ccc21 | 41.7 | 
12 | Cc1c(-c2ccc(O)cc2)n(Cc2ccc(Cn3c(-c4ccc(O)cc4)c(C)c4cc(O)ccc43)cc2)c2ccc(O)cc12 | 3.5 | 
13 | COc1ccc(/C=C(/C(=O)N(C)CCCCCCn2c(-c3ccc(O)cc3)c(C)c3cc(O)ccc32)c2cc(OC)c(OC)c(OC)c2)cc1O | 2.34 | 
14 | Cc1c(-c2ccc(O)cc2)n(Cc2ccc(O)cc2)c2ccc(O)cc12 | 38.9 | 
15 | CNCCCCCn1c(-c2ccc(O)cc2)c(C)c2cc(O)ccc21 | 49 | 
16 | Cc1c(-c2ccc(O)cc2)n(CCCCn2c(-c3ccc(O)cc3)c(C)c3cc(O)ccc32)c2ccc(O)cc12 | 2.75 | Activity (MCF7 [1]): 54.7%; Activity (MCF7 [2]): inactive; Activity (PBMC [3]): 16.7%; Activity (PBMC [4]): Non-toxic; IC50 (Estrogen receptor): 0.436 µM; IC50 (Estrogen receptor beta): 0.041 µM
17 | Cc1c(-c2ccc(O)cc2)n(Cc2ccc(F)cc2)c2ccc(O)cc12 | 41 | 
18 | CCCCn1c(-c2ccc(O)cc2)c(C)c2cc(O)ccc21 | 34 | 
19 | Cc1c(-c2ccc(O)cc2)n(CCO)c2ccc(O)cc12 | 17.7 | 
20 | COc1ccc(/C=C(/C(=O)N(C)CCCCCn2c(-c3ccc(O)cc3)c(C)c3cc(O)ccc32)c2cc(OC)c(OC)c(OC)c2)cc1O | 2.93 | 
21 | COc1ccc(-c2c(C)c3cc(OC)ccc3n2CCCCN(C)C(=O)/C(=C/c2ccc(OC)c(O)c2)c2cc(OC)c(OC)c(OC)c2)cc1 | 81.3 | 
22 | COc1ccc(/C=C(/C(=O)N(C)CCCCCCCCn2c(-c3ccc(O)cc3)c(C)c3cc(O)ccc32)c2cc(OC)c(OC)c(OC)c2)cc1O | 2.95 | 
